From patent US6416964B2, “Methods of identifying modulators of kinases responsive to stress” (Merck & Co., Inc., priority 1998, dated 2002)

What was measured:
stress reponsive kinases = experiment: activation of stress responsive kinases by compounds that modify osteoclast function; format: cell-based
Experimental: (§1) Preosteoclasts are generated and purified as described in Example 1. […] Untreated cells are included in the analyses and act as a negative control for kinase activities. Cells are then harvested and lysed in a HEPES (N-(2-hydroxyethyl)piperazine-N′-(2-ethansulfonic acid) or Tris buffer containing the following: β-glycerophosphate (50 mM); Na3VO4 (1 mM); NaF (1 mM); Microcystin LR (1 μM); leupeptin (10 μg/ml); aprotinin (10 μg/ml); phenylmethyl sulfonylfluoride (1 mM). Protein concentrations are determined for each lysate and 5-20 μg are loaded into each lane of a SDS-PAGE (sodium dodecyl sulfate-polyacrylamide gel electrophoresis) gel containing Myelin Basic Protein, or another kinase substrate, which has been polymerized into the gel at a concentration between 50-400 μg/ml. Molecular weight standards are also loaded into one or more lanes of the gels. In-gel kinase assays are run according to a standard procedure based on Kameshita and Fujisawa, 1989 (Anal. Biochem. 183:139-143) and of Gotoh et al., 1990 (Eur. J. Biochem. 193: 661-669), both references being incorporated by reference herein in their entirety. The proteins are electrophoresed in the above gels. The gels are then successively soaked in 50 mM HEPES, pH 7.6; 5 mM 2-mercaptoethanol and each of the following (for each wash): (a) 20% isopropanol; (b) no additions; (c) urea (6 M); (d) Urea (3 M); (e) Urea (0.75 M); and Tween 20 (0.05% vol:vol). Kinase reactions are then run by first soaking the gels in 20 mM HEPES, pH 7.6; 20 mM MgCl2; 2 mM DTT and then in the same buffer containing […] (non-radioactive) with ca. 1000 cpm/pmol ^32P-γ-ATP. The gels are then washed six times with 5% trichloroacetic acid and 1% pyrophosphate. The gels are then stained with Coomassie brilliant blue dye (0.125%) in 50% methanol, 10% acetic acid; destained with 30% methanol, 10% acetic acid; soaked in 2% glycerol; and dried using a gel dryer. The gels are then exposed to autoradiography film for times ranging from several hours to weeks. The bands observed in the autoradipgraphs representing the gels reflect kinase activities. […] The band intensities on the autoradiography film are quantitated by densitometry and comparisons between bands from untreated controls and bands from echistatin-treated cells provide the basis for the analyses.

Mst 1, Mst 2 [1] = experiment: in-gel kinase assay in HEK 293 transfectants expressing human αvβ3 integrin; format: cell-based; conditions: αvβ3 integrin transfected HEK 293 cells
50 kDa Kinase [2] = experiment: as above; format: cell-based; conditions: αvβ3 integrin transfected HEK 293 cells
50 kDa Kinase [3] = experiment: in-gel kinase assay (myelin basic protein substrate) in purified preosteoclasts; format: cell-based, mouse
Experimental: (§2) The following procedure is a modification of Wesolowski et al. (1995, Exp. Cell Res. 219: 679-686), which is incorporated by reference herein in its entirety. Cocultures are made by adding marrow cells from 6-week old mouse tibia and femur onto a monolayer of MB 1.8 mouse calvaria osteoblasts that are preseeded into culture dishes in α-MEM (minimal essential medium) containing fetal calf serum (10%) and 1,25 Dihydroxy Vitamin D3 (10 nM). Cocultures are maintained, with media changes every 48 hours, for a period of 6 days. Non-osteoclastic cells are removed by treatment of cocultures with Collagenase I (1 mg/ml in Phosphate Buffered Saline [PBS]). Collagenase-sensitive cells are removed by washing with PBS. Preosteoclasts are lifted from the dish using EDTA (0.2 g/L in PBS) and transferred into culture dishes and maintained in α-MEM containing fetal calf serum (10%), 1,25 Dihydroxy Vitamin D3 (10 nM), and m-Colony Stimulating Factor (5 ng/ml). Osteoclast-like cells (collagenase-insensitive, EDTA-insensitive cells) that remain attached to the original coculture dishes are maintained in α-MEM containing fetal calf serum (10%), 1,25 Dihydroxy Vitamin D3 (10 nM), and m-Colony Stimulating Factor (5 ng/ml).
as §1

[4] = tested on: approximately 60 kDa kinase doublet (Mst 1, Mst 2); experiment: as above; format: cell-based, mouse
Experimental: as §2, §1

34 kDa Kinase = experiment: in-gel kinase assay in osteoclast-like cells; format: cell-based, mouse
Experimental: as §2, §1
A similar approach is also used to assay for the 34 kDa Kinase and the 130 kDa Kinase.
Osteoclast-like cells are generated as described in Example 1. The compound or compounds to be evaluated are added at the desired concentration to the osteoclast-like cells for any of various times (1 minute to several hours). Cell lysates are made using standard techniques and in-gel kinase assays are performed as described in Example 2.

[5] = tested on: 34 kDa Mst kinase (Mst 1 cleavage); experiment: 34 kDa Mst kinase activation / Mst 1 cleavage in purified osteoclasts; format: cell-based; conditions: for activation of the 34 kDa Mst kinase: purified osteoclasts
50 kDa Kinase [6] = experiment: in-gel kinase assay in Parental HEK 293 cells; format: cell-based, human; conditions: 10-60 min (FIG. 5D-5F), Ala^24 echistatin 30 nM
Mst 1, Mst 2 [7] = experiment: in-gel kinase assay in Parental HEK 293 cells; format: cell-based, human; conditions: 10-60 min (FIG. 5D-5F), Ala^24 echistatin 30 nM
[8] = osteoclast like cells, 30 μM and 100 μM, about 17 hours (FIG. 6)
[9] = osteoclast-like cells, 100 μM and 300 μM (FIG. 9)
[10] = dose response, standard (overnight) film exposure (FIG. 2A)

Compound: calcitonin
- activation of stress responsive kinases (stress reponsive kinases): activate

Compound: O=C(NC[C@H](NS(=O)(=O)c1ccccc1)C(=O)O)c1ccc(OCCNC2=NCCCN2)cc1 [RGD II, (2-[N-(3,4,5,6-tetrahydropyrimidin-2-yl)amino]ethyloxyphen-4-yl)carbonyl-2(S)-phenylsulfonamido-beta-alanine]
- change in Mst 1 (ca. 59 kDa), Mst 2 (ca. 60 kDa) activities (Mst 1, Mst 2 [1]; 10 μM, 0-60 min (FIG. 5B)): increase
- change in 50 kDa Kinase activity (50 kDa Kinase [2]; 10 μM, 0-60 min (FIG. 5B)): increase
- activation of stress responsive kinases (stress reponsive kinases): activate
- activation of 50 kDa kinase (50 kDa Kinase [3]; 10 μM (FIG. 4B)): effective in activating
- activation of Mst 1, Mst 2 ([4]; 10 μM (FIG. 4B)): effective in activating

Compound: O=P(O)(O)C(Sc1ccc(Cl)cc1)P(=O)(O)O [tiludronate disodium, (4-chlorophenyl)thiomethane-1,1-disphosphonic acid]
- activation of 34 kDa Kinase (34 kDa Kinase; [8]): failed to activate
- activation of 34 kDa Kinase (34 kDa Kinase; [9]): failed to activate

Compound: C[C@@]1(O)CCOC(=O)C1 [mevalonic acid lactone]
- reduction of alendronate- and risedronate-induced Mst 1 cleavage [5]: about 50%

Compound: CC[C@H](C)C(=O)O[C@H]1C[C@@H](C)C=C2C=C[C@H](C)[C@H](CC[C@@H]3C[C@@H](O)CC(=O)O3)[C@H]21 [lovastatin]
- 34 kDa Mst 1 activity ([5]; treatment for 17-24 hours): increases

Compound: O=P(O)(O)C(O)(Cc1cccnc1)P(=O)(O)O [risedronate, 1-hydroxy-2-(3-pyridinyl)-ethylidene-1,1-bisphosphonic acid]
- activation of the 34 kDa Mst kinase [5]: induce activation

Compound: CC(O)(P(=O)(O)O)P(=O)(O)O [etidronate disodium, 1-hydroxyethane-1,1-diphosphonic acid]
- activation of 34 kDa Kinase (34 kDa Kinase; [8]): failed to activate
- activation of 34 kDa Kinase (34 kDa Kinase; [9]): failed to activate
- activation of the 34 kDa Mst kinase [5]: to a lesser extent

Compound: C[C@@](O)(CCO)CC(=O)O [mevalonic acid]
- blocking of lovastatin effects (34 kDa Mst 1 activity) [5]: blocked

Compound: O=P(O)(O)C(Cl)(Cl)P(=O)(O)O [Clodronate, 1,1-dichloromethylene-1,1-diphosphonic acid]
- activation of the 34 kDa Mst kinase [5]: also induce

Compound: echistatin
- effect on activity of 50 kDa Kinase (50 kDa Kinase [6]): no significant effect
- effect on activities of Mst 1, Mst 2 (Mst 1, Mst 2 [7]): no significant effect
- change in Mst 1 (ca. 59 kDa), Mst 2 (ca. 60 kDa) activities (Mst 1, Mst 2 [1]; 30 nM, 0-60 min (FIG. 5A, 5C)): increase
- change in 50 kDa Kinase activity (50 kDa Kinase [2]; 30 nM, 0-60 min (FIG. 5A, 5C)): increase
- activation of stress responsive kinases (stress reponsive kinases): activate
- activation of kinase of approximately 50 kDa (50 kDa Kinase [3]; 30 nM, time course (FIG. 1B)): also activated
- activation of the approximately 50 kDa kinase (50 kDa Kinase [3]; 30 and 100 nM doses, extended (about 3-4 days) exposure (FIG. 2B)): activation
- activation of approximately 60 kDa kinase doublet ([4]; 30 nM, time course (FIG. 1B)): strongly activated
- concentration of maximal activities of approximately 60 kDa kinase doublet [4, 10]: about 30 nM
- concentrations showing activation of approximately 60 kDa kinase doublet [4, 10]: ≥ 10 nM
- treatment time of maximal kinase activity ([4]; timecourse (FIG. 4A)): 20 min

Compound: CC(C)=CCCC(C)=CCCC(C)=CCO [farnesol]
- blocking of lovastatin effects (34 kDa Mst 1 activity) [5]: not
- reduction of alendronate- and risedronate-induced Mst 1 cleavage [5]: about 50%

Compound: NCCCC(O)(P(=O)(O)O)P(=O)(O)O [alendronate, 4-amino-1-hydroxybutylidene-1,1-bisphosphonic acid monosodium trihydrate]
- activation of 34 kDa Kinase (34 kDa Kinase; osteoclast like cells, 30 μM (FIG. 7, lane 2)): activation
- activation of 34 kDa Kinase (34 kDa Kinase; [8]): activation
- activation of 34 kDa Kinase (34 kDa Kinase; osteoclast-like cells, 10 μM and 30 μM, about 17 hours (FIG. 9)): activation
- activation of 34 kDa Kinase immunoprecipitated by anti-Mst and anti-Krs antibody cocktail (34 kDa Kinase; osteoclast-like cells, 30 μM (FIG. 10, lane 3)): activated
- activation of 34 kDa Kinase when coincubated with caspase inhibitor Z—VAD—FMK (34 kDa Kinase; osteoclast-like cells, in the presence of Z—VAD—FMK (FIG. 9, lane 8)): does not activate
- activation of the 34 kDa Mst kinase [5]: induce activation
- activation of stress responsive kinases (stress reponsive kinases): activate

Compound: CC(C)=CCC/C(C)=C/CC/C(C)=C/CC/C(C)=C/CO [geranylgeraniol]
- effect on activation of 34 kDa Kinase by 30 μM alendronate monosodium trihydrate (34 kDa Kinase; osteoclast like cells, 10 μM geranyl geraniol (FIG. 7, lane 3)): negates this activation
- blocking of alendronate- and risedronate-induced Mst 1 cleavage [5]: essentially completely blocked
- blocking of clodronate effects (34 kDa Mst kinase) [5]: not blocked
- blocking of lovastatin effects (34 kDa Mst 1 activity) [5]: blocked

Compound: Cl.Cl.Cl.O=C(O)C[C@H](Cc1cnc2ccccc2c1)NC(=O)CN1CC[C@H](NCc2ccc3c(n2)NCCC3)C1=O [RGD I]
- activation of stress responsive kinases (stress reponsive kinases): activate
- activation of 50 kDa kinase (50 kDa Kinase [3]; 10 nM (FIG. 4B)): effective in activating
- activation of Mst 1, Mst 2 ([4]; 10 nM (FIG. 4B)): effective in activating

Compound: NCCC(O)(P(=O)(O)O)P(=O)(O)O [pamidronate, 3-amino-1-hydroxypropylidene-1,1-bisphosphonic acid]
- activation of the 34 kDa Mst kinase [5]: induce activation
